Source: patent US10689342B2, “Aza-tanshinone derivatives, process for their preparation and their use in therapy” (UNIVERSITA' DEGLI STUDI DI MILANO, priority 2016, dated 2020)

Tests used:
SK-BR-3 = assay: alamar Blue viability assay; type: cell-based
Experimental: (§1) Tumor cell lines of metastatic breast cancer (MDA-MB-231), breast cancer (MCF7), human monocytic leukemia (THP-1) and pancreatic carcinoma (PANC-1) have been cultured in a complete DMEM or RPMI 1640 (Gibco Life Technologies) supplemented with 10% fetal bovine serum (FBS, Lonza), 2 mM L-glutamine and 100 U/ml penicillin-streptomycin (Lonza). The cell lines have been cultured at 37° C. in 5% CO2 and have been regularly tested for Mycoplasma contamination. The viability has been measured by means of alamar Blue assay (Thermo Fisher) under treatment for 24 hours with nanomolar to micromolar doses of aza-tanshinones. The mean viability and the standard deviation (SD) per each test compound have been obtained from the dose-response curves for triple doses (0.01, 0.1, 1. 10. 50 μM) in comparison with the control vehicle (DMSO).
(§2) The group of cell lines used in Paragraph 8.2, with the addition of the tumor cell lines of the metastatic breast cancer SK-BR-3 and of the colon adenocarcinoma SW-480, has been used to measure the IC50/cytotoxicity potency of compound 26. The viability assays have been performed as shown in Paragraph 8.2.

PANC-1 = assay: alamar Blue viability assay; type: cell-based
Experimental: as §1, §2

MDA-MB-231 [1] = assay: alamar Blue viability assay; type: cell-based
Experimental: as §1, §2

MCF7 = assay: alamar Blue viability assay; type: cell-based
Experimental: as §1, §2

SW-480 = assay: alamar Blue viability assay; type: cell-based
Experimental: as §1, §2

MDA-MB-231 [2] = assay: Scratch assay; type: cell-based; conditions: 24 hours (DMSO 35 ± 1.92)
Experimental: (§3) Scratch assays have been carried out on 6-well plates and, after treatment for 24 hours with aza-tanshinone 26, the empty area of the scratched wells has been calculated by using the ImageJ software. The experiments have been carried out in duplicate.

PANC1 = assay: Scratch assay; type: cell-based; conditions: 24 hours
Experimental: as §3

[3] = tested on: TNF mRNA in MCF-7 breast cancer cells; assay: Downregulation of TNF mRNA with LPS co-treatment; type: cell-based
Experimental: MCF-7 breast cancer cells (5*10^4/well) have been seeded in 6-well plates and cultured under standard conditions for 24 hours. The MCF-7 cells have then been treated for 3 hours in a complete medium with compound 26, or with DMSO/control vehicle. Three hours of treatment with DHTS in the MCF-7 cells have been enough to observe HuR-dependent post-transcriptional effects (44), whereby the same experimental conditions have been used here, including the co-treatment with lipopolysaccharide (LPS) as positive control to induce the TNF expression.

THP-1 = assay: alamar Blue viability assay; type: cell-based, human
Experimental: as §1, §2

[4] = tested on: THP-1 human leukemia monocytes; assay: Cytokine mRNA levels by Q-RT-PCR; type: cell-based; conditions: THP-1, LPS 26 vs LPS DMSO = 1
Experimental: THP-1 human leukemia monocytes (5*10^4/well) have been seeded in a 6-well plate and cultured under standard conditions for 24 hours as already described. The mRNA total levels for a group of cytokines have been quantified by means of standard quantitative real-time PCR (Q-RT-PCR). Two-way ANOVA has been applied for a statistical significance of the effects of compound 26 on the decrease of the mRNA of the cytokines.

MDA-MB-231 cells = assay: xCELLigence trans-well migration assay; type: cell-based; conditions: MDA-MB-231, THP1-conditioned medium
Source text: Migration assays have been carried out by using the xCELLigence RTCA DP Instrument (Roche) by seeding 5,000 cells/well at t0 in CIM-Plates-16 (Roche), using the 1% FBS medium (THP1 conditions) in the lower chamber and MDA-MB-231 cells seeded in the same way in the upper chamber. The ability of the MDA-MB-231 cells to migrate depends also on the presence of cytokines regulated by HuR in the surrounding environment.

SMILES: O=C1C=Cc2c(c(-c3ccccc3)cn2S(=O)(=O)c2ccccc2)C1=O [Compound 26, 1-Phenylsulfonyl-3-phenyl-4,5-dioxo indole]
- IC50 (SK-BR-3; Homo sapiens, SK-BR-3, cytotoxicity, 24 hours): 5.18 ± 0.11 µM
- % cell death (SK-BR-3; SK-BR-3): 57%
- IC50 (PANC-1; Homo sapiens, PANC-1, cytotoxicity, 24 hours): 6.27 ± 0.07 µM
- % cell death (PANC-1; PANC-1): 49%
- IC50 (MDA-MB-231 [1]; Homo sapiens, MDA-MB-231, cytotoxicity, 24 hours): 1.57 ± 0.04 µM
- % cell death (MDA-MB-231 [1]; MDA-MB-231): 66%
- IC50 (MCF7; Homo sapiens, MCF7, cytotoxicity, 24 hours): 3.85 ± 0.08 µM
- % cell death (MCF7; MCF7): 71%
- IC50 (SW-480; Homo sapiens, SW480, cytotoxicity, 24 hours): 4.81 ± 0.23 µM
- % cell death (SW-480; SW480): 62%
- empty area of the scratched wells (MDA-MB-231 [2]; MDA-MB-231, 26 1 μM): 45 ± 4
- empty area of the scratched wells (MDA-MB-231 [2]; MDA-MB-231, 26 5 μM): 45 ± 1
- empty area of the scratched wells (PANC1; PANC1, 26 1 μM): 38 ± 7
- empty area of the scratched wells (PANC1; PANC1, 26 5 μM): 32 ± 0.01
- TNF mRNA level ([3]; MCF-7, LPS+26, 3 hours (LPS+DMSO 1.62)): 1.00
- TNF RNA amount ([3]; MCF-7, LPS+26 relative to LPS+DMSO, 3 hours): 62%
- reduction of the TNF mRNA with respect to the control ([3]; MCF-7, after 3 hours): 35%
- IC50 (THP-1; Homo sapiens, THP-1, cytotoxicity, 24 hours): 9.77 ± 0.15 µM
- % cell death (THP-1; THP-1): 52%
- CCL2 mRNA level [4]: 0.88
- CCL5 mRNA level [4]: 0.51
- CCL8 mRNA level [4]: 0.00
- IFNA1 mRNA level [4]: 0.46
- IFNB1 mRNA level [4]: 0.33
- IFNG mRNA level [4]: 0.38
- IL1A mRNA level [4]: 1.04
- IL1B mRNA level [4]: 0.22
- IL2 mRNA level [4]: 1.18
- IL4 mRNA level [4]: 0.82
- IL7 mRNA level [4]: 0.56
- IL8 mRNA level [4]: 0.15
- IL10 mRNA level [4]: 0.16
- IL13 mRNA level [4]: 0.53
- IL15 mRNA level [4]: 0.91
- IL17A mRNA level [4]: 0.30
- IL18 mRNA level [4]: 0.36
- IL19 mRNA level [4]: 0.01
- TNF mRNA level [4]: 0.38
- Minimum of trans-well migration (MDA-MB-231 cells; 26 1 μM (LPS control 0.7176)): 0.1057
- Maximum of trans-well migration (MDA-MB-231 cells; 26 1 μM (LPS control 3.053)): 1.246
- Minimum of trans-well migration (MDA-MB-231 cells; 26 5 μM (LPS control 0.7176)): 0.1416
- Maximum of trans-well migration (MDA-MB-231 cells; 26 5 μM (LPS control 3.053)): 0.3311
